In patent publication US11834453B2, “Substituted pyrimido[5,4-d]pyrimidines as HER2 inhibitors” (Array BioPharma Inc., priority 2020, dated 2023) one finds IC50 and efflux ratio data, which are given here for 16 compounds.

Bounds are passed on as bounds.

For data set [1], the target named is ErbB2 insYVMA (HER2-YVMA, SEQ ID NO: 2) (Homo sapiens, UniProt P04626, INS775YVMA/P1170A). As to the kind of experiment: biochemical. The note with it: ErbB2 insYVMA enzyme assay; read-out: Assay 1 IC50.
Another data set concerns the target ErbB2 WT (Homo sapiens (Human), UniProt P04626). In words: ErbB enzyme assay (CisBio HTRF KinEASE-TK), Assay 2. The data set is classed as biochemical. The method, boiled down: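 ErbB2 phosphorylates 250 nM biotin-TK substrate at 1 mM ATP in 25 mM HEPES pH 7.4, 10 mM MgCl2, 0.01% Triton X-100 and 2% DMSO, for 30 min at 22 °C. Product is detected by HTRF with Sa-XL665 and TK-Ab-Cryptate. Percent of control is set by DMSO-only wells and pre-quenched wells.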
Background: Time-resolved FRET reads energy transfer from a long-lived donor to a nearby acceptor.

In the next data set the target is EGFR (Homo sapiens (Human), UniProt P00533). As to the kind of experiment: ErbB enzyme assay (CisBio HTRF KinEASE-TK), Assay 3. The data set is classed as biochemical. The method, boiled down:
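Inhibition is measured as reduced peptide phosphorylation by HTRF KinEASE-TK at 1 mM ATP and 250 nM substrate, 30 min at 22 °C. Values are IC50s from a 4-parameter logistic fit.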

The target of data set [2] is ErbB2 with Exon 20 YVMA insertion (HER2-YVMA) (Homo sapiens (Human), UniProt P04626, INS775YVMA). As to the kind of experiment: Cellular phosphorylation assay, constitutive ErbB2 phosphorylation (Y1196) in engineered NIH 3T3 cells, Assay 4. The class given is cell-based. The method, boiled down: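 Engineered NIH 3T3 cells expressing HER2-YVMA treated with compounds 1 h at 37 °C, then formaldehyde-fixed and methanol-permeabilized. pErbB2 Y1196 detected by in-cell infrared immunofluorescence, normalized to GAPDH. IC50 from the normalized curves.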
Chain of ErbB2 with Exon 20 YVMA insertion (HER2-YVMA) (P04626 other isoform, or with tags, fused parts or gaps ins YVMA behind 775): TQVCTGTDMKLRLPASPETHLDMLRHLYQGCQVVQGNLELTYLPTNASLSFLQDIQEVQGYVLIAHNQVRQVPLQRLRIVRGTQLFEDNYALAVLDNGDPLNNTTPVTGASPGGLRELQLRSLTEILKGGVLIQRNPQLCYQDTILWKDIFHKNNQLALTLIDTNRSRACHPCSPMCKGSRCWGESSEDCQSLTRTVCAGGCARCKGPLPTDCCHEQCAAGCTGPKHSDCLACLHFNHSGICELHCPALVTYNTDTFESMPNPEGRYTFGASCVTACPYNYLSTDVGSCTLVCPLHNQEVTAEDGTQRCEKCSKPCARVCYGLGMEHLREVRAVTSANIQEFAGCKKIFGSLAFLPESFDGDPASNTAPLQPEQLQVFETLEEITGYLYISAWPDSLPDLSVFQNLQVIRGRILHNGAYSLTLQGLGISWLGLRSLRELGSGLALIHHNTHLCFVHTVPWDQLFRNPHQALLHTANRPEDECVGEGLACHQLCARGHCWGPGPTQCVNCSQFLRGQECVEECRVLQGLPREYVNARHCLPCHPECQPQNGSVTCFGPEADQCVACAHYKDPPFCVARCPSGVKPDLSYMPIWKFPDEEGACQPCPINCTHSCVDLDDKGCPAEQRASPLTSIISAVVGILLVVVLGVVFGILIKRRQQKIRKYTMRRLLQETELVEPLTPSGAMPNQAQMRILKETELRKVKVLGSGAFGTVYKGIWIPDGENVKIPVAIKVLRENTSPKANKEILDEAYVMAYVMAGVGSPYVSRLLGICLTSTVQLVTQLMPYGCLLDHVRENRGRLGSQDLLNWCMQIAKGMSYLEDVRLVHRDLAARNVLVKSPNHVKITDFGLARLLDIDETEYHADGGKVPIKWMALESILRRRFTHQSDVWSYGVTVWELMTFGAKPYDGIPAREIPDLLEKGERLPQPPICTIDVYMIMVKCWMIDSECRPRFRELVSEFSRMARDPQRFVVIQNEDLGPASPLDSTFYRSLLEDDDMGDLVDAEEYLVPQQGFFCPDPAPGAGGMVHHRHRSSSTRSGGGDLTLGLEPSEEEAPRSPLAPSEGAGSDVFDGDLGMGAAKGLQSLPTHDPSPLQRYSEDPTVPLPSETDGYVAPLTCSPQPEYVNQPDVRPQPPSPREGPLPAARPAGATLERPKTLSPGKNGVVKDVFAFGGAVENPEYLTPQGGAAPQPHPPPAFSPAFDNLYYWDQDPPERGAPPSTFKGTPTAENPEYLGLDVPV

The target of another data set is EGFR wild type (EGFR WT) (Homo sapiens (Human), UniProt P00533). As to the kind of experiment: Cellular phosphorylation assay, EGF-stimulated EGFR phosphorylation in engineered NIH 3T3 cells, Phospho-EGFR DuoSet IC ELISA, Assay 5. The class given is cell-based. An outline of the steps: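 NIH 3T3 cells expressing EGFR WT (20,000/well, attached overnight) were exposed to serially diluted compound for 1 h at 37 °C, then stimulated with 100 ng/ml rEGF for 10 min. Phospho-EGFR in lysates measured by sandwich ELISA optical density; IC50 from curves.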
Chain of EGFR wild type (EGFR WT) (P00533 25-1210): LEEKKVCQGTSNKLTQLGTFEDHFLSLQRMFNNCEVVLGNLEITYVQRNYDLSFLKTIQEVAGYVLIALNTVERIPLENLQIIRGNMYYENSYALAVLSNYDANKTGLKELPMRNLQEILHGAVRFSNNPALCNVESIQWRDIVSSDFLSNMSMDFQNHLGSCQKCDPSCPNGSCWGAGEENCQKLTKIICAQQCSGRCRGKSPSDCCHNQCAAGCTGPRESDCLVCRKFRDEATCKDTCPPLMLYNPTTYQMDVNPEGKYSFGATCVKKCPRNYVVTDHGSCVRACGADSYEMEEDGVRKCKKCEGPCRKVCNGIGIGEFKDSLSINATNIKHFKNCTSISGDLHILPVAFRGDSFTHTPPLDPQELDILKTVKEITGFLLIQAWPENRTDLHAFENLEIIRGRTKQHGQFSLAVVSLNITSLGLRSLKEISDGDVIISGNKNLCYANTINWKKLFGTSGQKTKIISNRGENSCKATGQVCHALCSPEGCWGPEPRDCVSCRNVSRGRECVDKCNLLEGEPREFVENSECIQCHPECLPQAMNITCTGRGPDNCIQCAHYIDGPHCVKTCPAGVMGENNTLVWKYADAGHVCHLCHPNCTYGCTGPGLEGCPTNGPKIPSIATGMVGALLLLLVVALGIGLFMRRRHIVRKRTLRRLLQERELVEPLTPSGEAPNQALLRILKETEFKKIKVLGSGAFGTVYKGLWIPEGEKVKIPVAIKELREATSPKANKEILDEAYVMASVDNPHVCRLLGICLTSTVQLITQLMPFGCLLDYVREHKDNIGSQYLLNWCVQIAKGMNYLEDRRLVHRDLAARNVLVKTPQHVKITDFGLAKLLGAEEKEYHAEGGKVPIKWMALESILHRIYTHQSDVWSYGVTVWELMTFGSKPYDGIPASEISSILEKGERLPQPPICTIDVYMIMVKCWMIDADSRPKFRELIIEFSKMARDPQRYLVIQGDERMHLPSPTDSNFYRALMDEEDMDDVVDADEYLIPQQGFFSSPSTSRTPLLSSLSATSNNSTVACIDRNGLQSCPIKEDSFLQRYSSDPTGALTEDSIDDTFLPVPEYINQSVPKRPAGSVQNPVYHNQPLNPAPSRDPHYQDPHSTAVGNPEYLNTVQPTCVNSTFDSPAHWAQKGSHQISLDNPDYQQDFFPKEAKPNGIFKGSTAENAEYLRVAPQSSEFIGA
(In an ELISA, binding on a coated surface is turned into a signal by an enzyme label.)

A further data set addresses MDR1 (P-gp) (Homo sapiens (Human), UniProt P08183). As to the kind of experiment: MDR1 transfected LLC-PK1 permeability/efflux, Assay 6. The following applies: pig, LLC-PK1, Assay 6 Pe Ratio, efflux ratio Papp(B-A)/Papp(A-B), MDR1 transfected LLC-PK1.

Chain of EGFR (P00533 25-1210): as above
Chain of MDR1 (P-gp) (P08183 whole entry): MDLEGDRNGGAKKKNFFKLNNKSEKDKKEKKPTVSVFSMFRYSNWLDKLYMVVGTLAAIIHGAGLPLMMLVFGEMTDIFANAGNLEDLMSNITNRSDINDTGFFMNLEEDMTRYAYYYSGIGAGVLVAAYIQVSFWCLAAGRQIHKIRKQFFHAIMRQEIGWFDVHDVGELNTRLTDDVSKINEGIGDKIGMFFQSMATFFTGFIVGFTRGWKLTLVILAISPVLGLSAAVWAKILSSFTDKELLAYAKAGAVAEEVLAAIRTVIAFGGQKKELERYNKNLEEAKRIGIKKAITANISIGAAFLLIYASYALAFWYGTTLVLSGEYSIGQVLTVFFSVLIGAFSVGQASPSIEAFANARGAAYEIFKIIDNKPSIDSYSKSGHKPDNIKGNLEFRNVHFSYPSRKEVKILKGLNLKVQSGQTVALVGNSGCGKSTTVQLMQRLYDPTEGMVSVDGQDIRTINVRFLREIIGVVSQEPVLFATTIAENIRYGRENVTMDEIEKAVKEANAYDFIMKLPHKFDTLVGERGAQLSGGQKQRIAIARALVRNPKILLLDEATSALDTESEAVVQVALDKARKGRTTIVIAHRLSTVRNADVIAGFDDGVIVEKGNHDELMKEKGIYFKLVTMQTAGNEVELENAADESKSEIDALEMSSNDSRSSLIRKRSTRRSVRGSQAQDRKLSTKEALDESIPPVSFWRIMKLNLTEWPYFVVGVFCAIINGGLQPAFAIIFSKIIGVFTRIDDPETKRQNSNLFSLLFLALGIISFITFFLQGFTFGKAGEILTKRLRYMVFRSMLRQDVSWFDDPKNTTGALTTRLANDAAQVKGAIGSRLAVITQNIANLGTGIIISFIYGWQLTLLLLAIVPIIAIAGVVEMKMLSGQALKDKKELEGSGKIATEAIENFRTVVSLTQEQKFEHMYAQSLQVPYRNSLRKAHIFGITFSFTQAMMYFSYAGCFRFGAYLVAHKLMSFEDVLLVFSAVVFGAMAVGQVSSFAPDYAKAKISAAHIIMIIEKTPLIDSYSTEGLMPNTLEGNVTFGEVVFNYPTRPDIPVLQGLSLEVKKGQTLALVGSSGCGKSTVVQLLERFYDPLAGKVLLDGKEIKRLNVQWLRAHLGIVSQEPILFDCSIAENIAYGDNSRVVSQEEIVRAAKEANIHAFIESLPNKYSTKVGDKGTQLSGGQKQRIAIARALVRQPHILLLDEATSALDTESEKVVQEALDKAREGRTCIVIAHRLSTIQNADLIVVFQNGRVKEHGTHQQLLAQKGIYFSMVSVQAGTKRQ

As a reminder, the IC50 is the midpoint of a concentration-inhibition curve. A word on the efflux ratio: it is the permeability from basolateral to apical divided by that in the opposite direction, in the common usage. Regarding `Cc1cc(Nc2ncnc3cnc(N4CCOC5CC54)nc23)ccc1Oc1ccc2c(c1)ncn2C` (racemic) [Example 60, 6-(2-oxa-5-azabicyclo[4.1.0]heptan-5-yl)-N-(3-methyl-4-((1-methyl-1H-benzo[d]imidazol-5-yl)oxy)phenyl)pyrimido[5,4-d]pyrimidin-4-amine], the IC50 is 19.4 nM in data set [1]; 27.6 nM against ErbB2 WT; 8860 nM against EGFR; 8.5 nM in data set [2]; ≥ 5000 nM against EGFR wild type (EGFR WT). Besides, the efflux ratio at 2 h, 1 μM at MDR1 (P-gp) came out at 2.6.
For `Cc1cc(Nc2ncnc3cnc(N[C@H]4CCOC4)nc23)ccc1Oc1ccc2c(c1)ncn2C` [Example 17, (S)—N8-(3-methyl-4-((1-methyl-1H-benzo[d]imidazol-5-yl)oxy)phenyl)-N2-(tetrahydrofuran-3-yl)pyrimido[5,4-d]pyrimidine-2,8-diamine], the IC50 is 7 nM in data set [1]; 6 nM against ErbB2 WT; 2350 nM at EGFR; 9.2 nM in data set [2]; ≥ 5000 nM at EGFR wild type (EGFR WT). The efflux ratio at 2 h, 1 μM on MDR1 (P-gp) amounted to 6.6.
For the compound `Cc1cc(Nc2ncnc3cnc(NC45CC(C4)C5)nc23)ccc1Oc1ccc2c(c1)ncn2C` [Example 18, N2-(bicyclo[1.1.1]pentan-1-yl)-N8-(3-methyl-4-((1-methyl-1H-benzo[d]imidazol-5-yl)oxy)phenyl)pyrimido[5,4-d]pyrimidine-2,8-diamine], the 50% inhibitory concentration (IC50) in data set [1] was 122 nM; on ErbB2 WT it was 167 nM; on EGFR, ≥ 10000 nM; in data set [2] it was 47.8 nM; on EGFR wild type (EGFR WT), ≥ 5000 nM. The efflux ratio at 2 h, 1 μM at MDR1 (P-gp) stood at 2.6.
Turning to `CC(=O)N1CCN(c2ncc3ncnc(Nc4ccc(Oc5ccc6c(c5)ncn6C)c(C)c4)c3n2)CC1` [Example 24, 1-(4-(8-((3-methyl-4-((1-methyl-1H-benzo[d]imidazol-5-yl)oxy)phenyl)amino)pyrimido[5,4-d]pyrimidin-2-yl)piperazin-1-yl)ethan-1-one], the IC50 in data set [1] was 18.2 nM; at ErbB2 WT, 31.5 nM; against EGFR, ≥ 10000 nM; in data set [2], 7.1 nM; against EGFR wild type (EGFR WT), ≥ 5000 nM. Further, on MDR1 (P-gp), the efflux ratio at 2 h, 1 μM was determined as 30.
Regarding `Cc1cc(Nc2ncnc3cnc(N4CCN(C)C4=O)nc23)ccc1Oc1ccc2c(c1)ncn2C` [Example 28, 1-methyl-3-(8-((3-methyl-4-((1-methyl-1H-benzo[d]imidazol-5-yl)oxy)phenyl)amino)pyrimido[5,4-d]pyrimidin-2-yl)imidazolidin-2-one], the IC50 in data set [1] is 68.7 nM; at ErbB2 WT, 163 nM; against EGFR, ≥ 10000 nM; in data set [2], 24.8 nM; against EGFR wild type (EGFR WT) it was ≥ 5000 nM. On MDR1 (P-gp), the efflux ratio at 2 h, 1 μM was 13.3.
Turning to `Cc1cc(Nc2ncnc3cnc(NC4=NC(C)(C)CO4)nc23)ccc1Oc1ccc2c(c1)ncn2C` [Example 32, N2-(4,4-dimethyl-4,5-dihydrooxazol-2-yl)-N8-(3-methyl-4-((1-methyl-1H-benzo[d]imidazol-5-yl)oxy)phenyl)pyrimido[5,4-d]pyrimidine-2,8-diamine], the half-inhibitory concentration (IC50) in data set [1] was 34.6 nM; on ErbB2 WT, 43.4 nM; against EGFR, ≥ 10000 nM; in data set [2], 13.4 nM; on EGFR wild type (EGFR WT) it was ≥ 5000 nM. At MDR1 (P-gp), the efflux ratio at 2 h, 1 μM is 34.5.
Take `Cc1cc(Nc2ncnc3cnc(N4CCCC4=O)nc23)ccc1Oc1ccc2c(c1)ncn2C` [Example 34, 1-(8-((3-methyl-4-((1-methyl-1H-benzo[d]imidazol-5-yl)oxy)phenyl)amino)pyrimido[5,4-d]pyrimidin-2-yl)pyrrolidin-2-one]: the concentration for half-maximal inhibition (IC50) is 124 nM in data set [1]; 307 nM against ErbB2 WT; ≥ 10000 nM on EGFR; 30.5 nM in data set [2]; ≥ 5000 nM at EGFR wild type (EGFR WT). The efflux ratio at 2 h, 1 μM at MDR1 (P-gp) is 6.3.
`CNc1ncc2ncnc(Nc3ccc(Oc4ccc5scnc5c4)c(C)c3)c2n1` [Example 50, N8-(4-(benzo[d]thiazol-5-yloxy)-3-methylphenyl)-N2-methylpyrimido[5,4-d]pyrimidine-2,8-diamine 2,2,2-trifluoroacetate]: the half-maximal inhibitory concentration (IC50) is 4.8 nM in data set [1]; 11.4 nM at ErbB2 WT; 363 nM against EGFR; 93.6 nM in data set [2]; ≥ 5000 nM against EGFR wild type (EGFR WT). The efflux ratio at 2 h, 1 μM at MDR1 (P-gp) was found to be 1.2.
In the case of `Cc1cc(Nc2ncnc3cnc(N4C[C@H]5CCCN5C4=O)nc23)ccc1Oc1ccc2c(c1)ncn2C` [Example 66, (R)-2-(8-((3-methyl-4-((1-methyl-1H-benzo[d]imidazol-5-yl)oxy)phenyl)amino)pyrimido[5,4-d]pyrimidin-2-yl)hexahydro-3H-pyrrolo[1,2-c]imidazol-3-one], the IC50 in data set [1] is 53.9 nM; on ErbB2 WT, 180 nM; against EGFR, ≥ 10000 nM; in data set [2], 41.4 nM; on EGFR wild type (EGFR WT), ≥ 5000 nM. In addition, the efflux ratio at 2 h, 1 μM at MDR1 (P-gp) was 11.6.
For `Cc1cc(Nc2ncnc3cnc(N[C@@H]4CCNC[C@@H]4F)nc23)ccc1Oc1ccc2c(c1)ncn2C` [Example 83, N2-((3S,4R)-3-fluoropiperidin-4-yl)-N8-(3-methyl-4-((1-methyl-1H-benzo[d]imidazol-5-yl)oxy)phenyl)pyrimido[5,4-d]pyrimidine-2,8-diamine], the half-maximal inhibitory concentration (IC50) in data set [1] was 12.4 nM; against ErbB2 WT, 34.5 nM; against EGFR it was 5650 nM; in data set [2], 20.3 nM; against EGFR wild type (EGFR WT), ≥ 5000 nM. Also, on MDR1 (P-gp), the efflux ratio at 2 h, 1 μM amounted to 76.
With `Cc1cc(Nc2ncnc3cnc(N[C@@H]4CCN(C)C[C@@H]4F)nc23)ccc1Oc1ccc2c(c1)ncn2C` [Example 84, N2-((3S,4R)-3-fluoro-1-methylpiperidin-4-yl)-N8-(3-methyl-4-((1-methyl-1H-benzo[d]imidazol-5-yl)oxy)phenyl)pyrimido[5,4-d]pyrimidine-2,8-diamine], the IC50 was 14 nM in data set [1]; 47.2 nM against ErbB2 WT; 5380 nM on EGFR; 25.5 nM in data set [2]; ≥ 5000 nM against EGFR wild type (EGFR WT). In addition, the efflux ratio at 2 h, 1 μM at MDR1 (P-gp) worked out at 10.2.
Consider `Cc1cc(Nc2ncnc3cnc(N4CC(C(C)(C)O)C4)nc23)ccc1Oc1ccc2c(c1)ncn2C` [Example 118, 2-(1-(8-((3-methyl-4-((1-methyl-1H-benzo[d]imidazol-5-yl)oxy)phenyl)amino)pyrimido[5,4-d]pyrimidin-2-yl)azetidin-3-yl)propan-2-ol], for which the IC50 in data set [1] was 54.2 nM; against ErbB2 WT, 88.7 nM; on EGFR it was ≥ 10000 nM; in data set [2], 39.8 nM; against EGFR wild type (EGFR WT) it was ≥ 5000 nM. Also, the efflux ratio at 2 h, 1 μM at MDR1 (P-gp) was determined as 7.4.
In the case of `Cc1cc(Nc2ncnc3cnc(N4CC[C@H](S(C)(=O)=O)C4)nc23)ccc1Oc1ccc2c(c1)ncn2C` [Example 119, (S)—N-(3-methyl-4-((1-methyl-1H-benzo[d]imidazol-5-yl)oxy)phenyl)-6-(3-(methylsulfonyl)pyrrolidin-1-yl)pyrimido[5,4-d]pyrimidin-4-amine], the IC50 in data set [1] was 26.8 nM; at ErbB2 WT it was 30.7 nM; at EGFR, 9320 nM; in data set [2], 24.7 nM; at EGFR wild type (EGFR WT), ≥ 5000 nM. For the same compound, on MDR1 (P-gp), the efflux ratio at 2 h, 1 μM came to 29.6.
Turning to `Cc1cc(Nc2ncnc3cnc(N4CC(C)(O)CO4)nc23)ccc1Oc1ccc2c(c1)ncn2C` (stereo not drawn) [Example 191, 4-methyl-2-(8-((3-methyl-4-((1-methyl-1H-benzo[d]imidazol-5-yl)oxy)phenyl)amino)pyrimido[5,4-d]pyrimidin-2-yl)isoxazolidin-4-ol], the concentration for half-maximal inhibition (IC50) in data set [1] was 33 nM; against EGFR, ≥ 10000 nM; in data set [2] it was 36.4 nM; against EGFR wild type (EGFR WT), ≥ 5000 nM. For the same compound, the efflux ratio at 2 h, 1 μM at MDR1 (P-gp) turned out to be 36.5.
For `Cc1cc(Nc2ncnc3cnc(N(C)CCO)nc23)ccc1Oc1ccc2c(c1)ncn2C` [Example 208, 2-(methyl(8-((3-methyl-4-((1-methyl-1H-benzo[d]imidazol-5-yl)oxy)phenyl)amino)pyrimido[5,4-d]pyrimidin-2-yl)amino)ethan-1-ol], in that order: 17.3 nM, 3550 nM, 6 nM, ≥ 5000 nM and 11.2.
As for `Cc1cc(Nc2ncnc3cnc(NOCC(C)(C)O)nc23)ccc1Oc1ccc2c(c1)ncn2C` [Example 217, 2-methyl-1-(((8-((3-methyl-4-((1-methyl-1H-benzo[d]imidazol-5-yl)oxy)phenyl)amino)pyrimido[5,4-d]pyrimidin-2-yl)amino)oxy)propan-2-ol], the half-inhibitory concentration (IC50) was 23.2 nM in data set [1], 53.3 nM against ErbB2 WT, 35.1 nM in data set [2] and ≥ 5000 nM against EGFR wild type (EGFR WT). Also, the efflux ratio at 2 h, 1 μM on MDR1 (P-gp) stood at 6.
